Molecular target: T1, LOX10 (OsLOX10) (Oryza sativa, UniProt B7EMC8)
T1 construct: full-length CDS (2607 bp, 868 aa) in pET28a(+), His tag, E. coli BL21(DE3) lysate supernatant, about 98 kDa plus tag (band at 100 kDa)
Assay: KI-I2 starch staining (colour)
Assay type: biochemical
Conditions: E. coli lysate supernatant with recombinant LOX10, 0.5 µg protein/µl and dilutions; controls pET28a(+) supernatant and PBS

T1 sequence (B7EMC8 1-868): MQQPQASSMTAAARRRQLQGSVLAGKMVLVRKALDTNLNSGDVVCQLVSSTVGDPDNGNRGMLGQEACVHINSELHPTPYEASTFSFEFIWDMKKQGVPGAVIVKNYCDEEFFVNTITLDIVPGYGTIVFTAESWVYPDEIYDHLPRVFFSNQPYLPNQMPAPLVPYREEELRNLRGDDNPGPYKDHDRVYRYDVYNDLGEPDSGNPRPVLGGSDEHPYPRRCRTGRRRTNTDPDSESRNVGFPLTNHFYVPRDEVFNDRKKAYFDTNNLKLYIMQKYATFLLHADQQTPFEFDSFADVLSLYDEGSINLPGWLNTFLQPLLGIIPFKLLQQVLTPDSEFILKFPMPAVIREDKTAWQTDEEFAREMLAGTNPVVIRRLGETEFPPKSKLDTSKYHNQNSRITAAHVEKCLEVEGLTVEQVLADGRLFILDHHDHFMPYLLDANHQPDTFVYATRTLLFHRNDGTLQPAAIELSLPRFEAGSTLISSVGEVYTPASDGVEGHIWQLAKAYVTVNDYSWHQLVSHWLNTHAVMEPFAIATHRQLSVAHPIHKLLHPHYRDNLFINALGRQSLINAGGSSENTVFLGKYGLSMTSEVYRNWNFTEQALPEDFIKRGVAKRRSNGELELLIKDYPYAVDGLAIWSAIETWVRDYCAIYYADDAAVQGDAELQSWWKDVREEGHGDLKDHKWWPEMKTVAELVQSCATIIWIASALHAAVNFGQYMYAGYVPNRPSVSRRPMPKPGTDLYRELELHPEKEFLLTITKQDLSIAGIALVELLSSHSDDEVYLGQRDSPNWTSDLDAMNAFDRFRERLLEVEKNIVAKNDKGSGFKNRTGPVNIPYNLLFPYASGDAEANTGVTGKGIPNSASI

Q: Which “KI-I2 starch staining (colour)” value does the source give for `CCCCC/C=C\C/C=C\CCCCCCCC(=O)O` [LA, linoleic acid] here?
A: The KI-I2 staining showed that LOX10 could metabolize the substrate LA to produce starch

Reference: article PMC10089987, “The lipoxygenase OsLOX10 affects seed longevity and resistance to saline-alkaline stress during rice seedlings” (Plant Molecular Biology, 2023)
